Experimental data reported in publication PMC8805583, “Discovery of Herbacetin as a Novel SGK1 Inhibitor to Alleviate Myocardial Hypertrophy” (Advanced Science, 2021).
pIC50: −log10 of the molar value. Blank lines part the entries; values can stand above or below the compound they belong to.

What was measured:
SGK1 = molecular target: T1, SGK1 (Homo sapiens, UniProt O00141); experiment: Mass spectrometry-based SGK1 kinase inhibitory assay (LC/MS of phosphorylated […]); assay type: biochemical; conditions: for reduction in SGK1 inhibitory activity, absence of -OH at C-8: compared with HBT
T1 sequence (O00141 1-431): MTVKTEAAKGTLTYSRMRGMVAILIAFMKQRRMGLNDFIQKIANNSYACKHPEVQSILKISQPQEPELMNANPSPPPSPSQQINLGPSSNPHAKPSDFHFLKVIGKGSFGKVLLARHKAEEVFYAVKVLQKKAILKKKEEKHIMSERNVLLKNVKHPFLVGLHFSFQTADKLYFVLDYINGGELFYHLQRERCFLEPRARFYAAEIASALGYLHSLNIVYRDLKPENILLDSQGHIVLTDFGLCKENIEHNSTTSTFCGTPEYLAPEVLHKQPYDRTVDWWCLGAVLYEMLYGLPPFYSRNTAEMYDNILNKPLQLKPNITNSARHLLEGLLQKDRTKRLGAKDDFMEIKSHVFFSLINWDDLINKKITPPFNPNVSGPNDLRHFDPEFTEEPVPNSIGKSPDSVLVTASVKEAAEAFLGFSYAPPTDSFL
Text: To identify active compounds with SGK1 inhibitory activity from Ext.R, a novel mass‐spectrometry based kinase inhibitory assay was developed. A polypeptide sequence ([…], m/z: 618.6) derived from glycogen Synthase Kinase‐3(GSK3), a known substrate of SGK1, was optimized and synthesized. We subsequently used liquid chromatography coupled with mass spectrometry (LC/MS) to detect and quantify its phosphorylation level ([…](p)FAE, m/z:658.7) (Figure 3A).^[ [26] ^] Basal level SGK1 was supplemented to each well, and the peak area of phosphorylation was measured in the presence or absence of testing compounds. […] After investigating the major chemical constituents in Ext.R (Table S3, Supporting Information), a set of compounds in Ext.R were subsequently screened for their impacts on SGK1 activity. […] The direct interaction between HBT and SGK1 was further verified by temperature‐ and dose‐dependent cellular thermal shift assays (Figure 3E,F). We further performed a direct binding assay of HBT to SGK1 by KINOMEscan assay (Eurofins Discovery).
Synthesis of […] was prepared by Shanghai Sangong Biotech. In order to ensure the phosphorylation reaction of SGK1, SGK1 (0.25 µg mL^−1) was added to kinase buffer (25 mmol Tris [pH 7.5], 5 mmol β‐glycerolphosphate, 2 mmol DTT, 10 mmol MgCl2) with the substrate peptide […] (25 µmol) and ATP (200 µmol) and incubated for 1 h at 30 °C in the presence or absence of inhibitors. A concentration‐dependent assay for SGK1 at different concentrations (0.05, 0.1, 0.2, 0.25, and 0.3 µg mL^−1) was performed. Reactions were terminated by the addition of methyl alcohol with 0.1% trifluoroacetic acid (TFA), and supernatants were analyzed by the Agilent 1100 LC system (Agilent Technologies, USA) and a 1946D single quadrupole mass spectrometer. The acquisition parameters for LC/MS were set for positive ionization mode and selected ion monitoring (SIM) m/z values of 618.6 and 658.7 for the substrate peptide and product peptide respectively. Chromatographic separation was performed by a reversed‐phase ZORBAX SB‐C18 analytical column. The mobile phase included water containing 0.1% v/v TFA (A) and acetonitrile containing 0.1% v/v TFA (B). The flow rate was 0.6 mL min^−1. A gradient program was carried out according to the following profile: 0 min, 13% B; 15 min, 28% B; 16 min, 100% B. The constituents of Ext.R were screened by the assay to evaluate their inhibitory effects on SGK1 activity. A minimum of three replicates of each sample were analyzed and averaged together. Inhibition of SGK1 was calculated by the following equation (1) Inhibitionrate%=PC−PS/PC P C and P S represented the peak area of product peptide in the control group without test compounds and the tested sample group with various test compounds, respectively.

[1] = system: SGK1-dependent phosphorylation of NDRG1; set-up: method as in PMID 21865856; conditions: cited from earlier work
[2] = MS-based kinase inhibitory assay

Structure (SMILES): O=c1cc(-c2ccc(O)cc2)oc2c(O)c(O)cc(O)c12 [A3]
reduction in SGK1 inhibitory activity, absence of -OH at C-3 (SGK1): significant reduction

Structure (SMILES): CCc1c(C(=O)NNC(=O)C(O)c2cc(F)cc(F)c2)ccc(O)c1C (stereo not drawn) [EMD638683, reference compound]
pIC50 [1]: 5.47

Structure (SMILES): O=c1c(O)c(-c2ccc(O)cc2)oc2cc(O)cc(O)c12 [A1]
reduction in SGK1 inhibitory activity, absence of -OH at C-8 (SGK1): greater than 10 fold | pIC50 (SGK1; in figure, n = 3): 4.95

Structure (SMILES): O=c1c(O)c(-c2ccc(O)cc2)oc2c(O)c(O)ccc12 [A2, 3,7,8‐trihydroxy‐2‐(4‐hydroxyphenyl) chromen‐4‐one]
pIC50 (SGK1; [2]): 6.51

Other lines, results leading:

reduction in SGK1 inhibitory activity, absence of -OH at C-3 (SGK1): significant reduction
Structure (SMILES): O=c1cc(-c2ccc(O)cc2)oc2c(O)c(O)ccc12 [A5]

pIC50 (SGK1; [2]): 5.09
Structure (SMILES): O=C(O)/C=C/c1ccc(O)cc1 [p-coumaric acid]

reduction in SGK1 inhibitory activity, absence of -OH at C-8 (SGK1): greater than 10 fold | pIC50 (SGK1; in figure, n = 3): 4.94
Structure (SMILES): O=c1c(O)c(-c2ccc(O)cc2)oc2cc(O)ccc12 [A4]
